Test results reported in patent US20090221513A1, “Treatment of Neurodegenerative Disorders” (The Open University, priority 2005, published 2009).
Entries after “also recorded” stand apart in the source; their conditions may differ. Where a SMILES comes first, the peptide text is derived from it. [ ]: non-standard residue; d: D form. ξ: configuration not given here. ξR = N=C(N)NCCCC(N)C(=O)O; ξE = NC(CCC(=O)O)C(=O)O

How the values were obtained:
[1] = system: chicks with MK801-induced amnesia; assay: passive avoidance task, MK801-induced amnesia in chicks; type: in vivo, chick; details: 8 μg/hemisphere ic pre-training; MK801 0.020 mg/100 gr ip pre-training; tested 3 hr later
Protocol: FIG. 8 Effect of Ac-rER on MK801-induced amnesia. Chicks were injected ic with 8 μg/hemisphere of Ac-rER 60 min pre-training followed by ip injection of MK80 1 (0.020 mg/100 gr) pre-training. Controls were injected with saline. Chicks were tested 3 hr later. […] Each chick was trained and tested only once and differences between groups were tested for statistical significance by G-test (Sokal, and Rohlf, 1995).
Commercially obtained Ross Chunky eggs were incubated and hatched in brooders and held until 16±6 hours old. Chicks were placed in pairs in small aluminium pens. Following an equilibration period of an hour, the chicks were pretrained and trained essentially as described by Lossner and Rose (J. Neurochem. 41, 1357-1363 (1983), the contents of which are incorporated herein by reference). Pretraining involved three 10 s presentations of a small (2 mm diameter) white bead, at approximately 5 minute intervals. […] Two training techniques were used: “strong” and “weak” training. In both, 5 to 10 minutes after the last pre-training trial, chicks were trained by a 10 s presentation of a 4 mm diameter chrome bead, which had been dipped in the bitter-tasting methylanthranilate. […] Recall is calculated as a percent avoidance score (percentage of chicks which avoid the chrome bead) and as a discrimination score (percentage of chicks which avoid the chrome but peck at the white bead). […]

[2] = system: chicks trained on a weak training task; assay: one trial passive avoidance task, weak training (10% methylanthranilate), memory enhancement; type: in vivo, chick; details: for bio-activity as a cognitive enhancer: chick, D/L forms compared with RER; for memory retention (percent showing avoidance and discrimination), FIG. 1: weak aversive learning task, ic injection 60 min pre-training, saline control
Protocol: FIG. 1 The effect of different D/L forms of tripeptide as memory enhancers on weak memory. Chicks were injected ic with different D/L forms of tripeptide 60 min pre-training and tested 24 after. The control group received saline. […] Each chick was trained and tested only once and differences between groups were tested for statistical significance by G-test (Sokal, and Rohlf, 1995). Note that the G-test reflects group differences, and so there are no error bars on the figures.
FIG. 3 The effect of Ac-rER as memory enhancer in chicks trained on a weak training task (WT). Chicks were injected 2×ip injections, 1 mg/100 gr bw, 30 min and 6 hr pre-training and tested 24 hr later. The control groups received Ac-REr. […] Each chick was trained and tested only once and differences between groups were tested for statistical significance by G-test (Sokal, and Rohlf, 1995).
FIG. 5 Dose-dependence of the effect of Ac-rER in weak training. Chicks were injected ip with different doses of the Ac-rER 60 min pre-training and tested 24 after. The control group received saline. […] Each chick was trained and tested only once and differences between groups were tested for statistical significance by G-test (Sokal, and Rohlf, 1995).
FIG. 6 Stability of Ac-rER. Chicks were injected ip with 2 mg/100 g bw of Ac-rER 1, 2, 4, 6 and 12 hr before training and tested 24 hr later. The control group received saline. […] Each chick was trained and tested only once and differences between groups were tested for statistical significance by G-test (Sokal, and Rohlf, 1995). […]
Commercially obtained Ross Chunky eggs were incubated and hatched in brooders and held until 16±6 hours old. Chicks were placed in pairs in small aluminium pens. Following an equilibration period of an hour, the chicks were pretrained and trained essentially as described by Lossner and Rose (J. Neurochem. 41, 1357-1363 (1983), the contents of which are incorporated herein by reference). Pretraining involved three 10 s presentations of a small (2 mm diameter) white bead, at approximately 5 minute intervals. […] Two training techniques were used: “strong” and “weak” training. In both, 5 to 10 minutes after the last pre-training trial, chicks were trained by a 10 s presentation of a 4 mm diameter chrome bead, which had been dipped in the bitter-tasting methylanthranilate. Control chicks pecked at a water-coated or dry bead. In the “strong” version of the task, 100% methylanthranilate was used. In the “weak” version, 10% methylanthranilate was used. Chicks spontaneously pecked at the training or control beads within 20 s. Chicks that pecked at the bitter bead evinced a disgust reaction and would not normally peck at a similar, but dry bead for some hours subsequently. At various times following training chicks were tested, by offering them a dry 4 mm diameter chrome bead, followed 10 minutes later by a small (2 mm diameter) white bead, each for 20 to 30 s. Animals were tested by an experimenter blind as to which treatment each chick had received. Chicks are considered to remember the task if they avoid the chrome bead at test but peck at the white bead (discriminate), and to have forgotten it if they peck at both beads. Recall is calculated as a percent avoidance score (percentage of chicks which avoid the chrome bead) and as a discrimination score (percentage of chicks which avoid the chrome but peck at the white bead). […] Each chick was trained and tested only once and differences between groups tested for statistical significance by g-test described by Sokal and Rohlf (biometry: the Principles and Practice of Statistics in Biological Research (2nd edition), W H Freeman, New York (1981)), the contents of which are incorporated herein by reference. […]

[3] = system: chicks with Aβ1-42-induced amnesia; assay: passive avoidance task in chicks with Aβ-induced amnesia; type: in vivo, chick; details: for protection against amyloid-beta induced memory loss: chick
Protocol: FIG. 2 The effect of Ac-rER on memory in chicks with Aβ-induced amnesia. Chicks were injected 2×ip, 1 mg/100 gr bw, with Ac-rER, 6 hr and 12 hr pre-training. Aβ1-42 (2 μg/hemisphere) was injected ic 60 min pre-training. Chicks were tested 24 hr later. […] Each chick was trained and tested only once and differences between groups were tested for statistical significance by G-test (Sokal, and Rohlf, 1995).
Commercially obtained Ross Chunky eggs were incubated and hatched in brooders and held until 16±6 hours old. Chicks were placed in pairs in small aluminium pens. Following an equilibration period of an hour, the chicks were pretrained and trained essentially as described by Lossner and Rose (J. Neurochem. 41, 1357-1363 (1983), the contents of which are incorporated herein by reference). Pretraining involved three 10 s presentations of a small (2 mm diameter) white bead, at approximately 5 minute intervals. […] Two training techniques were used: “strong” and “weak” training. In both, 5 to 10 minutes after the last pre-training trial, chicks were trained by a 10 s presentation of a 4 mm diameter chrome bead, which had been dipped in the bitter-tasting methylanthranilate. Control chicks pecked at a water-coated or dry bead. In the “strong” version of the task, 100% methylanthranilate was used. In the “weak” version, 10% methylanthranilate was used. Chicks spontaneously pecked at the training or control beads within 20 s. Chicks that pecked at the bitter bead evinced a disgust reaction and would not normally peck at a similar, but dry bead for some hours subsequently. At various times following training chicks were tested, by offering them a dry 4 mm diameter chrome bead, followed 10 minutes later by a small (2 mm diameter) white bead, each for 20 to 30 s. Animals were tested by an experimenter blind as to which treatment each chick had received. […] Recall is calculated as a percent avoidance score (percentage of chicks which avoid the chrome bead) and as a discrimination score (percentage of chicks which avoid the chrome but peck at the white bead). […]

[4] = system: chicks with Anisomycin-induced amnesia; assay: passive avoidance task, Anisomycin-induced amnesia in chicks; type: in vivo, chick; details: 8 μg/hemisphere ic pre-training; Anisomycin 125 nmol/hemisphere ic immediately post-training; tested 3 hr post training
Protocol: FIG. 7 Effect of Ac-rER on Anisomycin-induced amnesia in chicks. Chicks were injected ic with 8 μg/hemisphere of Ac-rER 60 min pre-training followed by ic injection of Anisomycin (125 nmol/hemisphere). immediately post-training. Controls were injected with saline. Chicks were tested 3 hr post training. […] Each chick was trained and tested only once and differences between groups were tested for statistical significance by G-test (Sokal, and Rohlf, 1995).
Commercially obtained Ross Chunky eggs were incubated and hatched in brooders and held until 16±6 hours old. Chicks were placed in pairs in small aluminium pens. Following an equilibration period of an hour, the chicks were pretrained and trained essentially as described by Lossner and Rose (J. Neurochem. 41, 1357-1363 (1983), the contents of which are incorporated herein by reference). Pretraining involved three 10 s presentations of a small (2 mm diameter) white bead, at approximately 5 minute intervals. […] Two training techniques were used: “strong” and “weak” training. […] Recall is calculated as a percent avoidance score (percentage of chicks which avoid the chrome bead) and as a discrimination score (percentage of chicks which avoid the chrome but peck at the white bead). […]

[5] = system: chicks trained on a weak training task; details: as described in WO02/083729; cited from earlier work

Compound | effect on MK801-induced amnesia, FIG. 8 [1] | performance on the weak training task, FIG. 3 ([2]; 2×ip injections, 1 mg/100 gr bw, 30 min and 6 hr pre-training, tested 24 hr later, control Ac-REr) | bio-activity as a cognitive enhancer [2] | bio-activity as a cognitive enhancer ([2]; listed as Ac-RER) | dose sufficient to enhance memory, FIG. 5 ([2]; ip 60 min pre-training, tested 24 after) [mg per 100 g body weight] | time prior to training at which injection still acts as cognitive enhancer and neuroprotective agent ([2]; ip, FIGS. 2 and 3) | persistence of effect: time before training at which peptide is effective, FIG. 6 ([2]; single ip injection of 1-2 mg/100 g bw, tested 24 hr later) [h] | time of administration before training at which peptide is most effective, FIG. 6 ([2]; single ip injection, weak training) [h] | memory retention (percent showing avoidance and discrimination), FIG. 1 ([2]; tested 24 after) | memory retention (percent showing avoidance and discrimination), FIG. 1 ([2]; tested 24 after, listed as Ac-ReR) | memory retention in Aβ-induced amnesia, FIG. 2 ([3]; 2×ip, 1 mg/100 gr bw, 6 hr and 12 hr pre-training, Aβ1-42 2 μg/hemisphere ic 60 min pre-training, tested 24 hr later) | protection against amyloid-beta induced memory loss [3] | protection against amyloid-beta induced memory loss ([3]; listed as Ac-RER) | effect on Anisomycin-induced amnesia, FIG. 7 [4] | time prior to training at which injection is still effective (maximum), unprotected L-form [5] [h]
CC(=O)NC(CCCNC(=N)N)C(=O)NC(CCC(=O)O)C(=O)N[C@@H](CCCNC(=N)N)C(N)=O (stereo partly drawn) [Ac-rER] (Ac-[ξR]-[ξE]-Arg-NH2) | prevents either of these drugs from inducing amnesia | significantly enhanced; also recorded: effective when injected peripherally | active as a cognitive enhancer | effective as a cognitive enhancer | 1 | up to 12 hr | ≤ 12 | 4 | enhances memory retention to the levels observed in the chick treated with the Ac-L/L/L/ form | significant but lesser effects | restores cognitive function and prevents memory loss | protecting against amyloid-beta induced memory loss | protecting against amyloid-beta | prevents either of these drugs from inducing amnesia | –
Arg-Glu-Arg [RER] | – | – | – | – | – | – | – | – | – | – | – | – | – | – | ≤ 3
